Four compounds from patent US8354443B2, “Cyclopropane indolinone derivatives” (Hoffmann-La Roche Inc., priority 2009, dated 2013) can be followed below.

For the experiment, the system named is recombinant AMPK proteins (α1β1γ1, α2β1γ1, α1(1-335), α1(1-394) or α2(1-394)). Put plainly: Scintillation Proximity Assay (AMPK activation). The class given is biochemical, human. Conditions: effective concentration of activator for 50% of maximal enzyme activity; 2 hr at 30° C.; AMPK form not specified. In short, it runs like this: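 Pre-phosphorylated recombinant human AMPK (α1β1γ1, α2β1γ1, α1(1-335), α1(1-394) or α2(1-394)), 50 nM, incubated 2 hr at 30° C with 2 μM biotin-SAMS, 2 μM ATP plus [γ-33P]ATP, pH 7.5, and varying activator. Product detected by streptavidin SPA beads; EC50 is activator concentration giving 50% of maximal enzyme activity.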
Broadly, the EC50 is the concentration that produces a half-maximal response. For `O=C(O)c1cn(CCN2C(=O)[C@]3(C[C@@H]3c3ccc(Cl)cc3)c3ccccc32)cn1` (racemic) [Example 81, (1S,2R) and (1R,2S)-1-(2-(2-(4-chlorophenyl)-2′-oxospiro[cyclopropane-1,3′-indoline]-1′-yl)ethyl)-1H-imidazole-4-carboxylic acid], the EC50 is 2220 nM.

In the case of `O=C(O)c1cc(CN2C(=O)[C@]3(C[C@@H]3c3ccc(Cl)cc3)c3ccccc32)ccc1Cl` (racemic) [Example 6, (1S,2R) and (1R,2S)-2-chloro-5-((2-(4-chlorophenyl)-2′-oxospiro[cyclopropane-1,3′-indoline]-1′-yl)methyl)benzoic acid], the EC50 worked out at 7100 nM.

Regarding `O=C(c1cccc(CN2C(=O)[C@]3(C[C@@H]3c3ccc(Cl)cc3)c3ccccc32)c1)N1CCCCC1` (racemic) [Example 60, (1S,2R) and (1R,2S)-2-(4-chlorophenyl)-1′-(3-(piperidine-1-carbonyl)benzyl) Spiro[cyclopropane-1,3′-indolin]-2′-one], the EC50 was determined as 3500 nM.

Turning to `O=C(Nc1cc(C2CC2)[nH]n1)c1cccc(CN2C(=O)[C@]3(C[C@@H]3c3ccc(Cl)cc3)c3ccccc32)c1` (racemic) [Example 117, (1S,2R) and (1R,2S)-3-((2-(4-chlorophenyl)-2′-oxospiro[cyclopropane-1,3′-indoline]-1′-yl)methyl)-N-(5-cyclopropyl-1H-pyrazol-3-yl)benzamide], the EC50 was found to be 990 nM.
